pIC50: −log10 of the molar value.
What was measured:
JAK2 = biological target: T1, JAK2 (Homo sapiens, UniProt O60674); experiment: Jak Biochemical HTRF Assay (JAK2); conditions: recombinant purified GST-tagged catalytic domain, [ATP] 8.5 μM, values given as range classes
T1 construct: recombinant purified GST-tagged catalytic domain for each enzyme; purchased Invitrogen M4290
Method in brief: (§1)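 GST-tagged recombinant catalytic domain and biotinylated peptide substrate were preincubated with compound for 30 min at room temperature in kinase buffer with 2 mM DTT and 0.05% BSA. ATP then started a 120 min reaction. Phosphopeptide was detected by HTRF (Eu-pY20/streptavidin-Dylight 650, 665/615 nm ratio), and IC50 came from a 4-parameter fit of percent inhibition.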

JAK3 = biological target: T2, JAK3 (Homo sapiens, UniProt P52333); experiment: Jak Biochemical HTRF Assay (JAK3); conditions: recombinant purified GST-tagged catalytic domain, [ATP] 2.9 μM, values given as range classes
T2 construct: recombinant purified GST-tagged catalytic domain for each enzyme; purchased Invitrogen M4290
T2 sequence (P52333 822-1111 limits assumed): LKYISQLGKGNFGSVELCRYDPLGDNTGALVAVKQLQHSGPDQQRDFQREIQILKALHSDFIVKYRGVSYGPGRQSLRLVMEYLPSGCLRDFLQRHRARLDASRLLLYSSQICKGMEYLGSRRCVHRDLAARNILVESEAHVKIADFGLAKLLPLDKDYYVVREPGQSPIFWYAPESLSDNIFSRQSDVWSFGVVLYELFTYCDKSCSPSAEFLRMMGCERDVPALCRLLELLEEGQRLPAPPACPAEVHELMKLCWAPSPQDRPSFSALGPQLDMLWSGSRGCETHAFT
Method in brief: as §1

T1 sequence (O60674 849-1124 limits assumed): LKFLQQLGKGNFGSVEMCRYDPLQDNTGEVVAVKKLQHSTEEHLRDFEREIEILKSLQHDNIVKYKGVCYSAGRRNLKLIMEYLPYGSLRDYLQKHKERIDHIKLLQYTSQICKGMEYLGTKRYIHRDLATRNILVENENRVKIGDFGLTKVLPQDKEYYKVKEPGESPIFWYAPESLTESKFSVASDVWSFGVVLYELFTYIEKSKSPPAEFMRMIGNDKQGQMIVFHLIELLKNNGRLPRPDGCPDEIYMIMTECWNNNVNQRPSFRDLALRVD

Row | SMILES | pIC50 (JAK2) | pIC50 (JAK3)
1 | Cc1ncoc1C(=O)NCc1cnc2[nH]cc(-c3cncc(N[C@H](C(=O)NCC(F)(F)F)C(C)C)c3)c2c1 [Example 10-7, N~2~-{5-[5-({[(4-methyl-1,3-oxazol-5-yl)carbonyl]amino}methyl)-1H-pyrrolo[2,3-b]pyridin-3-yl]pyridin-3-yl}-N-(2,2,2-trifluoroethyl)valinamide] | < 6.30 | 6.30 to 8.00
2 | CC(C)=CC(=O)NCc1cnc2[nH]cc(-c3cncc(N[C@H](C(=O)NCC(F)(F)F)C(C)C)c3)c2c1 [Example 10-8, N~2~-[5-(5-{[(3-methylbut-2-enoyl)amino]methyl}-1H-pyrrolo[2,3-b]pyridin-3-yl)pyridin-3-yl]-N-(2,2,2-trifluoroethyl)valinamide] | 6.30 to 8.00 | 6.30 to 8.00
3 | CCCC(=O)NCc1cnc2[nH]cc(-c3cncc(N[C@H](C(=O)NCC(F)(F)F)C(C)C)c3)c2c1 [Example 10-9, N~2~-(5-{5-[(butanoylamino)methyl]-1H-pyrrolo[2,3-b]pyridin-3-yl}pyridin-3-yl)-N-(2,2,2-trifluoroethyl)valinamide] | < 6.30 | 6.30 to 8.00
4 | CC(C)[C@H](Nc1cncc(-c2c[nH]c3ncc(CNC(=O)CC(F)(F)F)cc23)c1)C(=O)NCC(F)(F)F [Example 10-10, N-(2,2,2-trifluoroethyl)-N~2~-[5-(5-{[(3,3,3-trifluoropropanoyl)amino]methyl}-1H-pyrrolo[2,3-b]pyridin-3-yl)pyridin-3-yl]valinamide] | < 6.30 | 6.30 to 8.00
5 | CC(C)[C@H](Nc1cncc(-c2c[nH]c3ncc(CNC(=O)N4CCCC4)cc23)c1)C(=O)NCC(F)(F)F [Example 10-11, N~2~-[5-(5-{[(pyrrolidin-1-ylcarbonyl)amino]methyl}-1H-pyrrolo[2,3-b]pyridin-3-yl)pyridin-3-yl]-N-(2,2,2-trifluoroethyl)valinamide] | < 6.30 | 6.30 to 8.00
